We go through three molecules from patent US4594347A, “Pyrrolo [3,2,1-ij]-quinoline carboxylic acid compound” (Otsuka Pharmaceutical Co. Limited, priority 1983, dated 1986).

Molecules are shown by their SMILES.

For data set [1], the system named is Staphylococcus aureus FDA 209P. Kind of data set: Antimicrobial test in vitro (MIC, agar plate dilution method). It counts as cell-based. More on the design: unit not given here. The following applies: S. aureus FDA 209P. As to the method: (§1) The antimicrobial activities of the following test compounds were tested by measuring the minimum inhibitory concentration (MIC) by an agar plate dilution method [cf. Chemotherapy, 22, 1126-1128 (1974)]. The test microorganisms were used in a concentration of 1×10^8 cells/ml (optical dencity (O.D.) at 660 m: 0.07-0.16) and 1×10^6 cells/ml (dilution: 100 folds).
A: Staphylococcus aureus FDA 209P

The test system of data set [2] is Streptococcus pyogenes II D S-23. The data set is described as above. Also on record: unit not given here. It counts as cell-based. As to conditions: S. pyogenes II D S-23. As to the method:
as §1
B: Streptococcus pyogenes II D S-23

The subject of data set [3] is Escherichia coli NIHJ JC-2. Described as above. The data set is classed as cell-based. As to conditions: E. coli NIHJ JC-2. More on the design: unit not given here. As to the method:
as §1
C: Escherichia coli NIHJ JC-2

Data set [4] concerns Escherichia coli No. 29. Described as above. The data set is classed as cell-based. More on the design: unit not given here. The following applies: E. coli No. 29. As for the experimental part: as §1
D: Escherichia coli No. 29

In data set [5] the test system is Klebsiella pneumoniae NCTC 9632. The data set is described as above. As to conditions: K. pneumoniae NCTC 9632. Also on record: unit not given here. The data set is classed as cell-based. As to the method:
as §1
E: Klebsiella pneumoniae NCTC 9632

Data set [6] concerns Proteus mirabilis 1287. The description is as above. The data set is classed as cell-based. As to conditions: P. mirabilis 1287. Also on record: unit not given here. As for the experimental part:
as §1
F: Proteus mirabilis 1287

Data set [7] concerns Proteus morganii II D Kono. The description is as above. It counts as cell-based. More on the design: unit not given here. As to conditions: P. morganii II D Kono. As for the experimental part:
as §1
G: Proteus morganii II D Kono

Data set [8] concerns Serratia marcescens IFO 12648. The data set is described as above. It counts as cell-based. More on the design: unit not given here. The following applies: S. marcescens IFO 12648. As for the experimental part:
as §1
H: Serratia marcescens IFO 12648

Data set [9] relates to Acinetobacter calcoaceticus AC-54. The description is as above. Also on record: unit not given here. It counts as cell-based. The following applies: A. calcoaceticus AC-54. As to the method:
as §1
I: Acinetobacter calcoaceticus AC-54

In data set [10] the test system is Pseudomonas aeruginosa ATCC 10145. Described as above. The data set is classed as cell-based. Also on record: unit not given here. As to conditions: P. aeruginosa ATCC 10145. As to the method: as §1
J: Pseudomonas aeruginosa ATCC 10145

Data set [11] deals with Pseudomonas aeruginosa E-2. Described as above. It counts as cell-based. More on the design: unit not given here. The following applies: P. aeruginosa E-2. As for the experimental part:
as §1
K: Pseudomonas aeruginosa E-2

The nature of data set [12]: Measurement of concentration of compounds in urine. It counts as in vivo. As to conditions: male rats, oral 25 mg/kg, 0-24 hours. As for the experimental part:
(§2) The same Test Compound 1 as used in the above Test 1 was orally administered in a dose of 25 mg/kg to three male rats (weighing 190-242 g), and blood and urine were collected from the animals at intervals. The concentration of the test compound in the collected urine and blood was measured by a thin layer plate cup (6 ml medium/.phi.90 mm shall) method wherein Bacillus subtilis ATCC 6633 was used as a test microorganism and a sensitive medium (manufactured by Eiken Kagaku K.K., Japan) was used as a medium. The results are shown in Table 2 (the concentration in urine) and in Table 3 (the concentration in blood), respectively.

Data set [13] is described as follows: Measurement of concentration of compounds in blood. The following applies: rat, male rats, oral 25 mg/kg. It counts as in vivo. As for the experimental part:
as §2

Data set [14] relates to Pseudomonas aeruginosa E-2. Kind of data set: Therapeutic effects of compounds in urinary infectious diseases in vivo. As to conditions: E2, 96 h, female S.D. rats, bladder infection, oral at 6, 24 and 48 hours, urine and kidney colonies after 4 days, Probit method, read-out: 50% effective dose (ED50). Also on record: species or system JCL:S.D. female rats. As to the method:
Pseudomonas aeruginosa E-2 was cultured in a nutrient medium at 37° C. for 18 hours and the culture broth thus obtained was diluted with the same medium to prepare a solution of the microorganism (cell concentration: 10^7 cells/ml). To the solution were dipped a UV-sterilized disc [glyceryl monomyristate (manufactured by Nikko Chemicals, Japan) and sodium cetylsulfurate (manufactured by Nikko Chemicals, Japan) in a weight ratio of 9:1; diameter: 2.0 mm, length: 3.0 mm] under ice-cooling for 1.5 hour to give a microorganism-containing disc for inoculation.
The above-prepared disc was surgically inserted into the bladder of JCL:S.D. female rats (one group: four rats) anaesthetized with secobarbital sodium. After the animals have been infected with the microorganism, i.e. 6 hours after the insertion of the disc, 1% oxamide-containing feed and water were administered to the animals. The oxamide-containing feed was changed to a normal feed after 24 hours. Test compounds 1, 7 and 8 as used in Test 1 (in the form of a 0.5% CMC suspension) were each orally administered to the animals in a dose of 16 mg/kg, 8.0 mg/kg, 4.0 mg/kg, 2.0 mg/kg, and 1.0 mg/kg at 6, 24 and 48 hours after the insertion of disc. After 4 days from the infection, urine was collected and further the kidney was taken out from the animals, and then the presence of microorganism was checked as to the collected urine and kidney. That is, 0.1 ml of the urine was applied onto an agar plate medium and cultured at 37° C. for 18 hours, and the number of colonies was counted. Besides, the taken out kidney was divided into two, and the plain section was contacted to an agar plate medium, and the medium was cultured likewise, and the number of colonies was counted, likewise. When the number of colonies was less than 10, it was evaluated as "effective," and when the number of colonies was more than 10, it was evaluated as "ineffective". […]

As for `CC1Cc2c(N3CCN(C)CC3)c(F)c(N)c3c(=O)c(C(=O)O)cn1c23` (stereo not drawn) [Compound 1, 8-fluoro-2-methyl-9-(4-methyl-1-piperazinyl)-7-amino-6-oxo-1,2-dihydro-pyrrolo[3,2,1-ij]quinoline-5-carboxylic acid], the “minimum inhibitory concentration (MIC)” value in data set [1] (1×10^6 cells/ml) stood at 0.2; in data set [1] (1×10^8 cells/ml) it was 0.39; in data set [2] (1×10^6 cells/ml) it was 3.13; in data set [2] (1×10^8 cells/ml), 3.13; in data set [3] (1×10^6 cells/ml), 0.05; in data set [3] (1×10^8 cells/ml), 0.1. Also, the “minimum inhibitory concentration (MIC)” value in data set [4] (1×10^6 cells/ml) was determined as 0.1; in data set [4] (1×10^8 cells/ml), 0.1; in data set [5] (1×10^6 cells/ml), 0.2; in data set [5] (1×10^8 cells/ml), 0.2; in [6] (1×10^6 cells/ml), 0.39; in data set [6] (1×10^8 cells/ml), 0.78. Besides, the “minimum inhibitory concentration (MIC)” value in data set [7] (1×10^6 cells/ml) is listed as 0.2; in data set [7] (1×10^8 cells/ml) it was 0.39; in data set [8] (1×10^6 cells/ml), 0.2; in [8] (1×10^8 cells/ml) it was 0.2; in data set [9] (1×10^6 cells/ml), 0.39; in data set [9] (1×10^8 cells/ml), 0.39. Further, the “minimum inhibitory concentration (MIC)” value is on record as 0.78 in data set [10] (1×10^6 cells/ml), 1.56 in data set [10] (1×10^8 cells/ml), 0.78 in data set [11] (1×10^6 cells/ml) and 1.56 in [11] (1×10^8 cells/ml). The “Recovered amount in urine” value in data set [12] was determined as 1471.6 µg. Moreover, the dose excreted at 24 h in data set [12] (rat, urine, read-out: Recovery rate in urine) worked out at 27.2%. The molecule also returned a concentration at 0.5 h in data set [13] (0.5 hour after the administration) of 3190 ng/mL. Besides, the concentration at 1 h in [13] (1 hour after the administration) was determined as 2490 ng/mL. Further, in [13] (2 hours after the administration), the concentration at 2 h stood at 1920 ng/mL. Further, the concentration at 4 h in [13] (4 hours after the administration) was determined as 900 ng/mL. This molecule also showed a concentration at 6 h in data set [13] (6 hours after the administration) of 600 ng/mL. The molecule also gave a concentration at 8 h in [13] (8 hours after the administration) of 310 ng/mL. In [14], the 50% effective dose (ED50) stood at 1.53 mg/kg.

With `CC1CCc2c(N3CCN(C)CC3)c(F)cc3c(=O)c(C(=O)O)cn1c23` (stereo not drawn) [Test compound 8, 8-(4-methyl-1-piperazinyl)-9-fluoro-5-methyl-6,7-dihydro-1-oxo-1H,5H-benzo[ij]quinolidine-2-carboxylic acid], in data set [14], the ED50 is 12 mg/kg.

With `CC1Cc2c(N3CCN(C)CC3)c(F)cc3c(=O)c(C(=O)O)cn1c23` (stereo not drawn) [Test compound 7, 8-fluoro-2-methyl-6-oxo-9-(4-methyl-1-piperazinyl)-1,2-dihydro-pyrrolo[3,2,1-ij]quinoline-5-carboxylic acid], the 50% effective dose (ED50) in data set [14] turned out to be 6.15 mg/kg.

As usually defined, the ED50 is the midpoint of the dose-response relation.
